Experimental data from US6458593B1, “Immortalized cell lines and methods of making the same” (Vitro Diagnostics, Inc., priority 1999, dated 2002).
No end group written: not given here.

Key:
Type in all cases: cell-based
[1] = tested on: primary cultured human pituitary cells; test: Pituitary hormone secretion from primary cultures of panned human pituitary cells; design: key to Effect on LH secretion / Effect on PRL secretion / Effect on FSH secretion / Effect on GH secretion: NE: no effect detected; +: stimulatory; −: inhibitory; conditions: for Optimum condition (concentration) for GH secretion / Optimum condition (concentration) for PRL secretion / Optimum condition (concentration) for FSH secretion / Optimum condition (concentration) for LH secretion: Gc medium
Experimental: Fetal human pituitary glands were obtained from Anatomical Gift Foundation (White Oak, Ga.) or Advanced Bioscience Resources, (Alameda, Calif.). Pituitary glands were stored in approximately 20 mls of RPMI culture media at 4° C. and processed within 24 hours of dissection. The gestational age ranged from 19 to 24 weeks. The following dispersion procedure was performed using sterile materials and technique throughout. Tissue was rinsed in 30 mls modified Kreb's Ringer solution, supplemented with 5 g/L bovine serum albumin (BSA) and nonessential amino acids. The tissue was then transferred to a glass microscope slide, and finely minced using scapels. Minced tissue was suspended in 2 to 2.25 mls modified Kreb's Ringer containing 1 mg/ml collagenase (Sigma Chemical Co., St. Louis, Mo.). The mixture was incubated at 37° C. with rotation at 250 rpm for 60 minutes. The dispersed cells were washed in 20 mls DMEM/F12 medium and centrifuged (5 minutes at 428×g). The supernatant was aspirated leaving 2-4 mls, and two additional washes were performed using 10 mls DMEM/F12. Cells were counted using a hemacytometer (Fresney, I R, 1987). The total number of cells ranged from 100,000 to 2 million per gland, with greater cell numbers in older pituitary glands. The mixture was centrifuged (5 minutes at 428×g). The pellet was then resuspended in culture media, as described below, at approximately 10^5 cells/ml and plated into multi-well, styrene tissue culture plates, incubated at 37° C. in humidified air supplemented with 5% CO2.
Primary culture conditions necessary for the proliferation of endocrine cells of the pituitary gland were investigated. The present invention requires cellular proliferation of target cells for integration of foreign DNA into the host cell genome and induction of immortalization. The pituitary gland is composed of numerous cell types including fibroblasts, follicular stellate cells, endocrine epithelial cells (gonadotropes, thyrotropes, somatotropes, lactotropes, melanotropes, corticotropes) and endothelial cells from blood vessels. Since the hormone-producing endocrine cells are one target of the present invention, we investigated methods to enrich the population of endocrine cells. […] Primary cultures were panned by initially plating the dispersed pituicytes in a single 35 mm tissue culture dish at about 5×10^4 cells/ml. After 16-24 hours, less adherent cells were removed from these cultures by repetitive pipetting of media (approximately 10 times). These cells were pelleted by centrifugation (5 minutes at 428×g) and replated at 10^5 cells/ml.
To monitor the viability and/or secretory capability of the hormone-producing endocrine cells, we measured secretion of pituitary hormones from cultures of panned pituitary cells. The level of FSH, LH, prolactin and TSH in culture media was determined using an automated chemiluminescent-based immunoanalyzer, ACS: 180™ (Chiron Diagnostics, Inc., Norwood, Mass.). Growth hormone was determined using an immunoradiometric assay (Nichols Institute, San Juan Capistrano, Calif.). Culture media was harvested on Mondays and Fridays from growing cultures for several weeks. These cultures were maintained in 48-well plates (Falcon/Becton Dickinson, Franklin Lakes, N.J.), with each well containing 1 ml of media. The majority of the media were carefully removed to avoid uptake of cells and transferred to 12×75 mm tubes for analysis. Cells were fed with an equal volume of fresh medium at the same time points. Background levels of GH in various media were insignificant (<0.1 ng/ml). Each condition was tested in duplicate and graphed values are the mean hormone concentration +/− standard deviation.
Similar types of experiments were done to optimize cell culture conditions and components for secretion of GH, FSH, LH, and prolactin from primary cultured human pituitary cells. […]

[2] = tested on: primary pituitary cultures; test: G418 selection: killing of non-transfected human pituitary cells
Experimental: Dispersed and panned cells human pituitary cells were plated at 200,000 to 300,000 cells per ml in 6-well plates (Falcon/Becton Dickinson, Franklin Lakes, N.J.) and grown until 30-50% confluent. Transfection was performed using cationic lipids to deliver plasmids containing either the SV40 large T antigen or the v-myc oncogene into primary-cultured pituitary cells. Plasmids without oncogenes were used as controls for transfection. Wells transfected with control plasmid slightly outlived primary cell cultures due to the presence of the gene coding for G418 resistance but died after 2 to 3 weeks or a single passage of the cells. Using Lipfectin®, we transfected panned pituitary cells with either pSV3neo (Southern, P J and Berg, P J, 1982) or pLXSN-v-myc, constructed as described below. The concentration of DNA was kept constant (typically […]) in each well while the amount of cationic lipid increased from 0-20 μl. […] The formation of colonies in the presence of G418 was monitored for a varying number of weeks.
Primary cultured human pituitary cells transfected with pSV3neo were incubated for an additional 48 to 60 hours in Gc medium with 10^−10 M estradiol and nonessential amino acids before G418 selection. […] Medium was replaced every 3 to 4 days and the formation of individual colonies was monitored visually. […]

[3] = tested on: immortalized bovine pituitary cells; test: Bovine GH secretion into conditioned media (immunoblot); conditions: 10 μM, 3 hours in media without FBS, passage 2-10
Experimental: Additional experiments were performed using highly sensitive immunological methods to detect bovine growth hormone within live, individual cells in the immortalized cultures. Bovine GH-specific monoclonal antibodies were obtained from Biogenesis, Inc. (Catalog No. 4750-0939) and OEM Concepts (Toms River, N.J.). […] A cellular blotting method was used to monitor bovine GH secretion from pituitary cells grown in culture, as described by Gibson-D'Ambrosio, et al. (1995). By localizing bovine GH within cultures, it was possible to obtain enriched cultures of bovine somatotropes prior to transfection with pSV3neo. […] These cell lines are indicated in Table 2 with the designation bGH, e.g., bGH C5.
To test for secretion of bovine GH from immortalized bovine cell line, cultures of passage 2-10 were grown to confluence in FBS-containing media, washed three times with PBS and incubated for 3 hours in media without FBS. Duplicate wells contained 10 μM bovine growth hormone releasing factor (GHRF).

[4] = primary human pituitary cultures
[5] = initial treatment, in the presence of cortisone and estrogen

`C[C@]12CC[C@@H]3c4ccc(O)cc4CC[C@H]3[C@@H]1CC[C@@H]2O` [17β-Estradiol] was tested, and the “Effect on GH secretion” value ([1]; 10^−10 M in medium, previous experiments) was “stimulatory effect”, the “Effect on FSH secretion” value [1, 4] was “NE” and the “Effect on LH secretion” value [1, 4] was “NE”. The “Optimum condition (concentration) for GH secretion” value [1, 4] was 100 pM and the “Optimum condition (concentration) for PRL secretion” value [1, 4] was 100 pM.
For `CN[C@@H]1[C@@H](O)[C@@H](O[C@@H]2[C@@H](O)[C@H](O[C@H]3O[C@H]([C@@H](C)O)[C@@H](O)[C@H](O)[C@H]3N)[C@@H](N)C[C@H]2N)OC[C@]1(C)O` [G418], the Non-transfected cells killed ([2]; 250 μg/ml, final dose) was 100% and the “Concentration sufficient to kill all primary pituitary cultures tested” value ([2]; human primary pituitary cultures) was 150 µg/mL.
With `C[C@]12CCC(=O)C=C1CC[C@@H]1[C@@H]2[C@@H](O)C[C@@]2(C)[C@H]1CC[C@]2(O)C(=O)CO` [Hydrocortisone] the “Effect on LH secretion” value [1, 4] was “NE”, the “Effect on PRL secretion” value [1, 4] was “NE” and the “Optimum condition (concentration) for FSH secretion” value [1, 4] was 5e-08 M. The “Optimum condition (concentration) for GH secretion” value [1, 4] was 50000 pM.
In the case of `N[C@@H](Cc1cc(I)c(Oc2ccc(O)c(I)c2)c(I)c1)C(=O)O` [T3, 3,5,3′ triiodothyronine], the “Effect on TSH release” value ([1]; 10^−10 M) is reported as “strongly inhibitory”, the “Effect on secretion of GH” value ([1]; 10^−10 M) is reported as “beneficial” and the “Effect on secretion of LH” value ([1]; 10^−10 M) is reported as “beneficial”. For the same compound, the “Effect on secretion of prolactin” value ([1]; 10^−10 M) was “beneficial”, the “Effect on FSH secretion” value [1, 4] was “NE” and the “Optimum condition (concentration) for GH secretion” value [1, 4] was 100 pM. The “Optimum condition (concentration) for LH secretion” value [1, 4] was 1e-10 M and the “Optimum condition (concentration) for PRL secretion” value [1, 4] was 100 pM.
In the case of “FGF-basic: basic fibroblast growth factor, growth factor addition to the medium”, the “Effect on GH release” value ([1]; 0.1 ng/ml, preliminary evidence) is reported as “potentiates”, the “Effect on FSH secretion” value [1, 4] is reported as “NE” and the “Effect on LH secretion” value [1, 4] is reported as “NE”. For the same compound, the “Effect on PRL secretion” value [1, 4] was “NE” and the “Optimum condition (concentration) for GH secretion” value [1, 4] was 0.1 ng/mL.
For “GHRF: bovine growth hormone releasing factor (YADAIFTNSYRKVLGQLSARKLLQDIMNRQQGERNQEQGAKVRL; ends and bridges not checked; UniProt P63292 31-74, looked up)”, the “Effect on amount of bovine GH secreted” value [3] was “appeared to be potentiated”.
In the case of “GnRH: gonadotropin releasing hormone, a hypothalamic releasing hormone (QHWSYGLRPG; ends and bridges not checked; UniProt P01148 24-33, looked up)”, the “Effect on FSH secretion” value [1, 5] is reported as “significantly potentiated”, the “Effect on LH secretion” value [1, 5] is reported as “significantly potentiated” and the “Effect on GH secretion” value [1, 4] is reported as “NE”. The “Effect on PRL secretion” value [1, 4] was “NE”, the “Optimum condition (concentration) for FSH secretion” value [1, 4] was 10^−10 M and the “Optimum condition (concentration) for LH secretion” value [1, 4] was 10^−7 to 10^−10M.
